Results as given in patent US11059795B2, “Androgen receptor modulators and methods for their use” (ESSA Pharma, Inc., priority 2018, dated 2021).

Key:
[1] = Microsomal stability assay, mouse liver microsomes; format: in vitro ADME; conditions: mouse, liver microsomes, pH 7.4, mouse liver microsomes, 1 μM compound, 0.5 mg/mL protein, 37° C.; read-out: MLM +30/− NADPH: Clint (μL/min/mg protein)
Outline: (§1)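 Compound at 1 μM was incubated at 37° C with 0.5 mg/mL liver microsomes and 1 mM NADPH and/or 1 mM UDPGA (with alamethicin) in 100 mM potassium phosphate pH 7.4, 3 mM MgCl2. Samples were taken at 0, 15, 30 and 60 min and measured by LC/MS/MS. t½ came from compound loss relative to 0 min, and Clint was scaled with 45 mg microsomal protein/g liver.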

[2] = Microsomal stability assay, human liver microsomes; format: in vitro ADME; conditions: pH 7.4, 1 μM compound, 0.5 mg/mL protein, 37° C., read-out: HLM +/− NADPH: Clint (μL/min/mg protein)
Outline: as §1

androgen receptor (AR) = molecular target: T1, androgen receptor (AR) (Homo sapiens, UniProt P10275, T878A); experiment: Androgen-induced PSA (6.1 kb)-luciferase reporter assay in LNCaP cells; format: cell-based; conditions: LNCaP cells transfected with PSA (6.1 kb)-luciferase reporter, R1881 1 nM, 24 h; read-out: PSA-Luc IC50 Range
T1 construct: LNCaP cells were transiently transfected with the PSA (6.1 kb)-luciferase reporter for 24 h; endogenous in cells; host or cells: LNCaP
T1 sequence (P10275 1-920 T878A): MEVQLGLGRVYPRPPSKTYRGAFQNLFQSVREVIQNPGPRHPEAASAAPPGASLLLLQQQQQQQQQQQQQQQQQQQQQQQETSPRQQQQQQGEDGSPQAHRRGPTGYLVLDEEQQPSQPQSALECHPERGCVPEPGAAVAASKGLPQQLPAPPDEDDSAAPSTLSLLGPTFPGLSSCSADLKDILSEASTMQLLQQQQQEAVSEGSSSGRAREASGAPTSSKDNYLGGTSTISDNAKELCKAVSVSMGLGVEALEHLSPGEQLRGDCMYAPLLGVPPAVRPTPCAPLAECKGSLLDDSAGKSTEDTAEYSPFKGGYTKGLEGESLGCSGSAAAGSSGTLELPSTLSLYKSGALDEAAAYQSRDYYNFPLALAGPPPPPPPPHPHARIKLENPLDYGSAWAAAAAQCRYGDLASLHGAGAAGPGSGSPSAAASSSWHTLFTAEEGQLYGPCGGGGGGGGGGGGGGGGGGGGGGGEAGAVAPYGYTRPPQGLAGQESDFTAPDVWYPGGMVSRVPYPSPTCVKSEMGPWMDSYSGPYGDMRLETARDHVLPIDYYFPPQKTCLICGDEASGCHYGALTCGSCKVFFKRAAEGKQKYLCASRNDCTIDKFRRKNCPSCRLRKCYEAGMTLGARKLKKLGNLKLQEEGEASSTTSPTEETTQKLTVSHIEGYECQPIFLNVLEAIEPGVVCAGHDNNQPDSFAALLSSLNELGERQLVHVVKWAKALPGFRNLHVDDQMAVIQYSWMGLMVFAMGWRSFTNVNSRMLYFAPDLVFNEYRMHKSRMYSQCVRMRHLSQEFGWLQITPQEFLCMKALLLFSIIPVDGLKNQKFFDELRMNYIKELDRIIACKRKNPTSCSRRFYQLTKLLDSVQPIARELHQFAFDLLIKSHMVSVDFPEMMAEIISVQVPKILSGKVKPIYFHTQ
Outline: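 LNCaP cells carrying a PSA (6.1 kb) promoter-luciferase reporter with AREs; androgen-induced firefly luciferase read from lysates for 10 s. RLU normalized to protein content; IC50 calculated from the normalized data.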

[3] = In vivo pharmacokinetics in plasma after oral gavage (PO) in male CD-1 mice; conditions: plasma, single PO dose 5 mg/kg, male CD-1 mice; for bioavailability / AUC(0-t) / Cmax / Tmax / half-life: mouse; for bioavailability: oral availability; for half-life: read-out: t½ (converted)
Method: The purpose of this study is to determine the pharmacokinetics of the tested compounds in plasma, following oral gavage administration (PO) to male CD-1 mice.
Animal Husbandry: Animals were group housed during acclimation and the study. The animal room environment were controlled (target conditions: temperature 18 to 26° C., relative humidity 30 to 70%, 12 hours artificial light and 12 hours dark). Temperature and relative humidity were monitored daily. Animals were fasted at least 12 hours prior to the administration. All animals had access to Certified Rodent Diet ad libitum 4 hours post dosing.
Dose Formulation: prepared 85-100 uL of a stock solution of representative compounds of the disclosure in DMSO at 50 mM; 1.5% v/v of Tween 80 were added and mixed gently; 95.5% v/v saline was added gently to the organic phase. The solution was mixed slowly by reverse pipetting to get a clear solution.
Dose Administration: the dose formulations were administered via oral gavage per facility SOPs. The dose volume were determined by the animals' body weight collected on the morning of dosing day
Sample Collection: blood collection (about 0.05 mL per time point) was performed from saphenous vein of each animal into polypropylene tubes at each timepoints (0, 0.25, 0.5, 1, 2, 4, 8, 12, and 24 hr). All blood samples were transferred into pre-chilled tubes containing 2 μL of K2-EDTA (0.5M) and placed on wet ice until centrifugation. Each collected blood sample was in the wet-ice before centrifugation. Each collected blood was under centrifugation for 15 minutes at 4° C. and 3000 g for plasma collection. Plasma samples were stored in polypropylene tubes, quickly frozen over dry ice and kept at −70±10° C. until LC/MS/MS analysis.
Bioanalytical analysis: A LC-MS/MS method for the quantitative determination of tested compound in biological matrix were developed under non-GLP compliance. A calibration curve with at least 7 non-zero calibration standards were applied for the method including LLOQ.
Plasma concentration versus time data were analyzed by non-compartmental approaches using the Phoenix WinNonlin 6.3 software program. Cl, Vdss, C0, Cmax, Tmax, T^1/2, AUC(0-t), AUC(0-inf), MRT(0-t), MRT(0-inf), % F (oral availability) and graphs of plasma concentration versus time profile were reported.

[4] = molecular target: LBD of estrogen receptor-β (ERβ) fused to DBD of GAL4 (Homo sapiens, UniProt Q92731); experiment: LBD-expressing reporter assay (GeneBLAzer), ERβ LBD; format: cell-based; conditions: inhibition of maximal activity attained with agonist; read-out: Steroid Receptor LBD IC50 (μM) ERβ
From the text: (§2) To assess if the representative compounds (Compounds A13, A28, A38, A74, A93, and A109) compete with ligand (agonist) for the ligand-binding domain (LBD) of steroid hormone receptors (which would be off-target), the GeneBLAzer assay was employed (Thermo Fisher). This assay uses cells that stably express a chimera fusion protein comprising the LBD of a steroid hormone receptor fused to the DNA-binding domain (DBD) of GAL4 along with beta-lactamase reporter under transcriptional control of an upstream activator sequence (UAS). When agonist binds to the LBD of the GAL4 (DBD)-steroid hormone (LBD) chimera fusion protein, the protein binds to the UAS, resulting in expression of beta-lactamase. LBDs of androgen receptor (AR), progesterone receptor-beta (PRβ), glucocorticoid receptor (GR), estrogen receptor-α (ERα), and estrogen receptor-β (ERβ) were tested and IC50s calculated for inhibiting maximal activity attained with agonist.

LN-CaP95 cells = experiment: Cell proliferation assay, LNCaP95 (BrdU incorporation); format: cell-based; conditions: LNCaP-95, read-out: Cellular Proliferation/Viability IC50 (μM) LNCaP95
Method: (§3) Cell proliferation/viability was measured in LNCaP and PC3 cells with Alamar blue, and proliferation was measured in LN-CaP95 cells with BrdU incorporation. In LNCaP cells, AR specific proliferation is calculated by measuring the difference between control cells treated with or without 0.1 nM R1881.

[5] = molecular target: T2, LBD of progesterone receptor-beta (PRβ) fused to DBD of GAL4 (Homo sapiens, UniProt P06401); experiment: LBD-expressing reporter assay (GeneBLAzer), PR LBD; format: cell-based; conditions: inhibition of maximal activity attained with agonist; read-out: Steroid Receptor LBD IC50 (μM) PR
T2 sequence (P06401 679-913 limits assumed): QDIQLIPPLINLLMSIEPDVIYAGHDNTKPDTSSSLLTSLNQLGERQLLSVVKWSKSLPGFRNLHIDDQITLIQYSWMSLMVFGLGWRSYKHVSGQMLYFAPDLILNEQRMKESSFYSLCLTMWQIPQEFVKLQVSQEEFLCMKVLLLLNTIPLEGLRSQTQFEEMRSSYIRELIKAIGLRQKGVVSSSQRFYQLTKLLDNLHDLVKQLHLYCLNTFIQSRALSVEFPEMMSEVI
From the text: as §2, with “This” for “To assess if the representative compounds (Compounds A13, A28, A38, A74, A93, and A109) compete with ligand (agonist) for the ligand-binding domain (LBD) of steroid hormone receptors (which would be off-target), the GeneBLAzer assay was employed (Thermo Fisher). This”

LNCaP cells = experiment: Cell proliferation/viability assay, LNCaP (Alamar blue); format: cell-based; conditions: Homo sapiens, AR specific proliferation with 0.1 nM R1881, read-out: Cellular Proliferation/Viability IC50 (μM) LNCaP
Method: as §3

PC3 cells = experiment: Cell proliferation/viability assay, PC3 (Alamar blue); format: cell-based; conditions: Homo sapiens; PC-3, Alamar blue; read-out: Cellular Proliferation/Viability IC50 (μM) PC-3
Method: as §3

[6] = molecular target: T3, LBD of glucocorticoid receptor (GR) fused to DBD of GAL4 (Homo sapiens, UniProt P04150); experiment: LBD-expressing reporter assay (GeneBLAzer), GR LBD; format: cell-based; conditions: inhibition of maximal activity attained with agonist; read-out: Steroid Receptor LBD IC50 (μM) GR
T3 sequence (P04150 524-758 limits assumed): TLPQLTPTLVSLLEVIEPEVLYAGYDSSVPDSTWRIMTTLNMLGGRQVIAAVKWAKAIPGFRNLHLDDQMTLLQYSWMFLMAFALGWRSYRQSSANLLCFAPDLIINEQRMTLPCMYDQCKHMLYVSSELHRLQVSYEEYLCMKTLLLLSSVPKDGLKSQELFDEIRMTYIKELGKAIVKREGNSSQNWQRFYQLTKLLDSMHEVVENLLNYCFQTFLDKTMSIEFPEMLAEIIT
From the text: as §2, with “This” for “To assess if the representative compounds (Compounds A13, A28, A38, A74, A93, and A109) compete with ligand (agonist) for the ligand-binding domain (LBD) of steroid hormone receptors (which would be off-target), the GeneBLAzer assay was employed (Thermo Fisher). This”

[7] = molecular target: T4, LBD of estrogen receptor-α (ERα) fused to DBD of GAL4 (Homo sapiens, UniProt P03372); experiment: LBD-expressing reporter assay (GeneBLAzer), ERα LBD; format: cell-based; conditions: inhibition of maximal activity attained with agonist; read-out: Steroid Receptor LBD IC50 (μM) ERα
T4 sequence (P03372 311-547 limits assumed): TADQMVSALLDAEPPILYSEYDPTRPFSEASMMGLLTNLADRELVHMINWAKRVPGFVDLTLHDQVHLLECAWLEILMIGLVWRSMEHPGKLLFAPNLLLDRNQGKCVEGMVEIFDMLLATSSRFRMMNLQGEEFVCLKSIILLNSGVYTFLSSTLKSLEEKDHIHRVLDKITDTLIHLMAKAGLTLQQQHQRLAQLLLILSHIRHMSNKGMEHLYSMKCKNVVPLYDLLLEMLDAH
From the text: as §2, with “This” for “To assess if the representative compounds (Compounds A13, A28, A38, A74, A93, and A109) compete with ligand (agonist) for the ligand-binding domain (LBD) of steroid hormone receptors (which would be off-target), the GeneBLAzer assay was employed (Thermo Fisher). This”

Sequence of LBD of estrogen receptor-β (ERβ) fused to DBD of GAL4 (Q92731 264-498 limits assumed): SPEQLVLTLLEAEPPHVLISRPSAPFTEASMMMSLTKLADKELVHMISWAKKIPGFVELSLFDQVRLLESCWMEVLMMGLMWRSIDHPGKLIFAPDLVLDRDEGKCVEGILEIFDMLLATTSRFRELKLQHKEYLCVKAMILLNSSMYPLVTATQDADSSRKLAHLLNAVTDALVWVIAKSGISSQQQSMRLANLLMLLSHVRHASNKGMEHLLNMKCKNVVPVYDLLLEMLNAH

| Compound | microsomal CLint at 1 μM [1] | microsomal CLint at 1 μM [2] | IC50 (androgen receptor (AR)) | bioavailability [3] | AUC(0-t) [3] | Cmax [3] | Tmax [3] | half-life [3] | AUC/D [3] | IC50 [4] | IC50 (LN-CaP95 cells) | IC50 [5] | IC50 (LNCaP cells) | IC50 (PC3 cells) | IC50 [6] | IC50 [7] |
| --- | --- | --- | --- | --- | --- | --- | --- | --- | --- | --- | --- | --- | --- | --- | --- | --- |
| CC(C)(c1ccc(OCc2ncc(S(C)(=O)=O)o2)cc1)c1cc(Cl)c(OCCCl)c(Cl)c1 [Compound A66] | < 12 µL/min/mg | < 12 µL/min/mg | 0.5 to 2 µM | 71.4% | 11.9 µg·h/mL | 1.61 µg/mL | 0.8 h | 12 h | 2385.4 kg·ng·h/mL/mg | – | – | – | – | – | – | – |
| CC(Oc1ccc(C(C)(C)c2cc(Cl)c(OCCCl)c(Cl)c2)cc1)c1ocnc1S(C)(=O)=O (stereo not shown) [Compound A35, 5-(1-(4-(2-(3,5-Dichloro-4-(2-chloroethoxy)phenyl)propan-2-yl)phenoxy)ethyl)-4-(methylsulfonyl)oxazole] | 12 to 48 µL/min/mg | < 12 µL/min/mg | 0.5 to 2 µM | 49.6% | 2.42 µg·h/mL | 0.819 µg/mL | 0.5 h | 4 h | 483.0 kg·ng·h/mL/mg | – | – | – | – | – | – | – |
| Cc1cc(C(C)(C)c2ccc(OCc3ocnc3S(C)(=O)=O)cc2)cc(C#N)c1OCCCl [Compound A29, 2-(2-chloroethoxy)-3-methyl-5-(2-(4-((4-(methylsulfonyl)oxazol-5-yl)methoxy)phenyl)propan-2-yl)benzonitrile] | 12 to 48 µL/min/mg | 12 to 48 µL/min/mg | < 0.5 µM | 60.6% | 5.19 µg·h/mL | 2.01 µg/mL | 0.5 h | 2.5 h | 1037.3 kg·ng·h/mL/mg | – | – | – | – | – | – | – |
| CC(C)(c1ccc(OC[C@H](O)CO)cc1)c1ccc(OC[C@H](O)CCl)cc1 [EPI-002, reference compound] | – | – | – | – | – | – | – | – | – | > 10 µM | ~20 µM | > 10 µM | 9 µM | > 10 µM | > 10 µM | > 10 µM |
